Assay results reported in patent publication US10532106B2 (priority 2014, dated 2020).
Where two headings read alike, the source gives them in different places. Numbered stars: 1 amine (or outer) side, 2 acyl side, 3 side chain; on linkers, the order of the positions; unused ones are H or OH. Bridge positions count the residues as written; N and C are the ends. Square brackets hold non-standard residues; d marks the D form. Peptide text beside a SMILES is read from it. Phe(4-Br) = N[C@@H](Cc1ccc(Br)cc1)C(=O)O; 1Nal = N[C@@H](Cc1cccc2ccccc12)C(=O)O; TBMB = c1c(C[*:1])cc(C[*:3])cc1C[*:2]; Tle = CC(C)(C)[C@H](N)C(=O)O; Sar = CNCC(=O)O

Molecular target: T1, MT1-MMP hemopexin domain (Homo sapiens, UniProt P50281)
T1 construct: residues Cys319-Gly511 from the human gene; His6 (N); made in house; host or cells: HEK293 (transient), pEXPR-IBA42 vector
Experiment: Competition assay using fluorescence polarisation
Type: binding
Settings: for Kd: read-out: Kd
Description: Here, a pre-formed complex of PEX with the fluorescent PEX-binding tracer is titrated with free, non-fluoresceinated bicyclic peptide. Since all 17-69-based peptides are expected to bind at the same site, the titrant will displace the fluorescent tracer from PEX. Dissociation of the complex can be measured quantitatively, and the Kd of the competitor (titrant) to the target protein determined. The advantage of the competition method is that the affinities of non-fluoresceinated bicyclic peptides can be determined accurately and rapidly.
Subsequently, the non-fluorescent competitor bicyclic peptide (usually just the bicycle core sequence) is titrated, such that it displaces the fluorescent tracer from the target protein. The displacement of the tracer is measured and associated with a drop in fluorescence polarisation. The drop in fluorescence polarisation is proportional to the fraction of target protein bound with the non-fluorescent titrant, and thus is a measure of the affinity of titrant to target protein.
The raw data is fit to the analytical solution of the cubic equation that describes the equilibria between fluorescent tracer, titrant, and binding protein. The fit requires the value of the affinity of fluorescent tracer to the target protein, which can be determined separately by direct binding FP experiments (see previous section).

[1] = Table 8, substitutions at position 4

Row | SMILES | potency / activity toward MT1-MMP, in words | Kd [1] [nM] | further results
1 | CC(=O)NCC(=O)N(C)CC(=O)N(C)CC(=O)N(C)CC(=O)N(C)CC(=O)N(C)CC(=O)N(C)CC(=O)N(C)CC(=O)N(C)CC(=O)N(C)CC(=O)N(C)CC(=O)N[C@@H](C)C(=O)N[C@H]1CSCc2cc3cc(c2)CSC[C@H](NC(=O)[C@@H](C)NC(=O)[C@H](Cc2cccc4ccccc24)NC(=O)[C@H](CCC(=O)O)NC(=O)[C@H](CC(N)=O)NC(=O)[C@@H](C)NC1=O)C(=O)N[C@@H](CCC(=O)O)C(=O)N[C@@H](CC(=O)O)C(=O)N[C@@H](Cc1ccccc1)C(=O)N[C@@H](Cc1ccc(O)cc1)C(=O)N[C@@H](CC(=O)O)C(=O)N[C@@H](C(C)(C)C)C(=O)N[C@H](C(N)=O)CSC3 [17-69-07-N239, Ac-G-Sar10-A-(17-69-07) D-Ala1 1Nal4 D-Ala5 tBuGly11] (Ac-G[Sar][Sar][Sar][Sar][Sar][Sar][Sar][Sar][Sar][Sar]AC[dA]NE[1Nal][dA]CEDFYD[Tle]C-NH2; linker 13-19-26 via TBMB) | potency which is superior to wildtype |  | Kd (Table 11, G-Sar10-A addition): 0.94 ± 0.08 nM
2 | CC(=O)NCC(=O)N(C)CC(=O)N(C)CC(=O)N(C)CC(=O)N(C)CC(=O)N(C)CC(=O)N(C)CC(=O)N(C)CC(=O)N(C)CC(=O)N(C)CC(=O)N(C)CC(=O)N[C@@H](C)C(=O)N[C@H]1CSCc2cc3cc(c2)CSC[C@H](NC(=O)[C@@H](C)NC(=O)[C@H](Cc2cccc4ccccc24)NC(=O)[C@H](CCC(=O)O)NC(=O)[C@H](CC(N)=O)NC(=O)[C@@H](C)NC1=O)C(=O)N[C@@H](CCC(=O)O)C(=O)N[C@@H](CC(=O)O)C(=O)N[C@@H](Cc1ccccc1)C(=O)N[C@@H](Cc1ccc(Br)cc1)C(=O)N[C@@H](CC(=O)O)C(=O)N[C@@H](C(C)(C)C)C(=O)N[C@H](C(N)=O)CSC3 [17-69-07-N255, Ac-G-Sar10-A-(17-69-07) D-Ala1 1Nal4 D-Ala5 4BrPhe9 tBuGly11] (Ac-G[Sar][Sar][Sar][Sar][Sar][Sar][Sar][Sar][Sar][Sar]AC[dA]NE[1Nal][dA]CEDF[Phe(4-Br)]D[Tle]C-NH2; linker 13-19-26 via TBMB) | potency which is superior to wildtype |  | Kd (Table 11, G-Sar10-A addition): 0.3 nM
3 | CC[C@H](C)[C@@H]1NC(=O)[C@H](CC(=O)O)NC(=O)[C@H](Cc2ccc(O)cc2)NC(=O)[C@H](Cc2ccccc2)NC(=O)[C@H](CC(=O)O)NC(=O)[C@H](CCC(=O)O)NC(=O)[C@@H]2CSCc3cc(cc(c3)CSC[C@H](NC(C)=O)C(=O)N[C@@H](Cc3ccc(O)cc3)C(=O)N[C@@H](CC(N)=O)C(=O)N[C@@H](CCC(=O)O)C(=O)N[C@@H](Cc3ccccc3)C(=O)N3CCC[C@@H]3C(=O)N2)CSC[C@@H](C(N)=O)NC1=O [17-69-07-N059, Ac-(17-69-07) D-Pro5] (Ac-CYNEF[dP]CEDFYDIC-NH2; linker 1-7-14 via TBMB) |  |  | Kd (Table 6, D-Alanine substitutions in first loop): > 5000 nM
4 | CC[C@@H](C)[C@H]1NC(=O)[C@@H](CC(=O)O)NC(=O)[C@@H](Cc2ccc(O)cc2)NC(=O)[C@@H](Cc2ccccc2)NC(=O)[C@@H](CC(=O)O)NC(=O)[C@@H](CCC(=O)O)NC(=O)[C@H]2CSCc3cc(cc(c3)CSC[C@@H](NC(=O)[C@@H](C)NC(=O)CN3CCN(CC(=O)O)CCN(CC(=O)O)CCN(CC(=O)O)CC3)C(=O)N[C@H](Cc3ccc(O)cc3)C(=O)N[C@H](CC(N)=O)C(=O)N[C@H](CCC(=O)O)C(=O)N[C@H](Cc3ccccc3)C(=O)NCC(=O)N2)CSC[C@H](C(N)=O)NC1=O [17-69-07-N246, DOTA-A-(17-69-07) All D Amino Acids] | lacks any activity toward MT1-MMP |  | Kd (Table 15, DOTA-linked peptides): > 5000 nM
5 | C[C@H](NC(=O)CN(C)C(=O)CN(C)C(=O)CN(C)C(=O)CN(C)C(=O)CN(C)C(=O)CN(C)C(=O)CN(C)C(=O)CN(C)C(=O)CN(C)C(=O)CN(C)C(=O)CN)C(=O)N[C@H]1CSCc2cc3cc(c2)CSC[C@H](NC(=O)[C@@H](C)NC(=O)[C@H](Cc2cccc4ccccc24)NC(=O)[C@H](CCC(=O)O)NC(=O)[C@H](CC(N)=O)NC(=O)[C@@H](C)NC1=O)C(=O)N[C@@H](CCC(=O)O)C(=O)N[C@@H](CC(=O)O)C(=O)N[C@@H](Cc1ccccc1)C(=O)N[C@@H](Cc1ccc(Br)cc1)C(=O)N[C@@H](CC(=O)O)C(=O)N[C@@H](C(C)(C)C)C(=O)N[C@H](C(N)=O)CSC3 [17-69-07-N244, G-Sar10-A-(17-69-07) D-Ala1 1Nal4 D-Ala5 4BrPhe9 tBuGly11] (H-G[Sar][Sar][Sar][Sar][Sar][Sar][Sar][Sar][Sar][Sar]AC[dA]NE[1Nal][dA]CEDF[Phe(4-Br)]D[Tle]C-NH2; linker 13-19-26 via TBMB) | potency which is superior to wildtype |  | Kd (Table 12, molecules selected for plasma stability assessment): 0.45 ± 0.19 nM
6 | CC[C@H](C)[C@@H]1NC(=O)[C@H](CC(=O)O)NC(=O)[C@H](Cc2ccc(O)cc2)NC(=O)[C@H](Cc2ccccc2)NC(=O)[C@H](CC(=O)O)NC(=O)[C@H](CCC(=O)O)NC(=O)[C@@H]2CSCc3cc(cc(c3)CSC[C@H](NC(C)=O)C(=O)N[C@@H](Cc3ccc(O)cc3)C(=O)N[C@@H](CC(N)=O)C(=O)N[C@@H](CCC(=O)O)C(=O)N[C@@H](Cc3c[nH]c4ccccc34)C(=O)NCC(=O)N2)CSC[C@@H](C(N)=O)NC1=O [17-69-44-N002, Ac-(17-69-07) Trp4] (Ac-CYNEWGCEDFYDIC-NH2; linker 1-7-14 via TBMB) |  | 0.75 ± 0.23 | 
7 | CC[C@H](C)[C@@H]1NC(=O)[C@H](CC(=O)O)NC(=O)[C@H](Cc2ccc(O)cc2)NC(=O)[C@H](Cc2ccccc2)NC(=O)[C@H](CC(=O)O)NC(=O)[C@H](CCC(=O)O)NC(=O)[C@@H]2CSCc3cc(cc(c3)CSC[C@H](NC(C)=O)C(=O)N[C@@H](Cc3ccc(O)cc3)C(=O)N[C@@H](CC(N)=O)C(=O)N[C@@H](CCC(=O)O)C(=O)N[C@@H](Cc3ccc(Cl)c(Cl)c3)C(=O)NCC(=O)N2)CSC[C@@H](C(N)=O)NC1=O [17-69-07-N137, Ac-(17-69-07) 3,4-DCPhe4] |  | 1.85 ± 2.45 | 
8 | CC[C@H](C)[C@@H]1NC(=O)[C@H](CC(=O)O)NC(=O)[C@H](Cc2ccc(O)cc2)NC(=O)[C@H](Cc2ccccc2)NC(=O)[C@H](CC(=O)O)NC(=O)[C@H](CCC(=O)O)NC(=O)[C@@H]2CSCc3cc(cc(c3)CSC[C@H](NC(C)=O)C(=O)N[C@@H](Cc3ccc(O)cc3)C(=O)N[C@@H](CC(N)=O)C(=O)N[C@@H](CCC(=O)O)C(=O)N[C@@H](C(C)(C)C)C(=O)NCC(=O)N2)CSC[C@@H](C(N)=O)NC1=O [17-69-07-N072, Ac-(17-69-07) tBuGly4] (Ac-CYNE[Tle]GCEDFYDIC-NH2; linker 1-7-14 via TBMB) |  | > 5000 | 
9 | CC[C@H](C)[C@@H]1NC(=O)[C@H](CC(=O)O)NC(=O)[C@H](Cc2ccc(O)cc2)NC(=O)[C@H](Cc2ccccc2)NC(=O)[C@H](CC(=O)O)NC(=O)[C@H](CCC(=O)O)NC(=O)[C@@H]2CSCc3cc(cc(c3)CSC[C@@H](C(=O)N[C@@H](C)C(N)=O)NC1=O)CSC[C@H](NC(=O)[C@H](C)N)C(=O)N[C@@H](Cc1ccccc1)C(=O)NCC(=O)N[C@@H](CCC(=O)O)C(=O)N[C@@H](Cc1ccccc1)C(=O)NCC(=O)N2 [17-69-02-N001, A-(17-69-02)-A] (H-ACFGEFGCEDFYDICA-NH2; linker 2-8-15 via TBMB) |  |  | Kd (Table 2, FP method Competition, tracer A-(17-69-07)-A-Sar6-K(Fluorescein)): 191 nM
10 | CC[C@H](C)[C@@H]1NC(=O)[C@H](CC(=O)O)NC(=O)[C@H](Cc2ccc(O)cc2)NC(=O)[C@H](Cc2ccccc2)NC(=O)[C@H](CC(=O)O)NC(=O)[C@H](CCC(=O)O)NC(=O)[C@@H]2CSCc3cc(cc(c3)CSC[C@H](NC(C)=O)C(=O)N[C@@H](Cc3ccc(O)cc3)C(=O)N[C@@H](CC(N)=O)C(=O)N[C@@H](CCC(=O)O)C(=O)N[C@@H](Cc3cccc4ccccc34)C(=O)NCC(=O)N2)CSC[C@@H](C(N)=O)NC1=O [17-69-07-N067, Ac-(17-69-07) 1NAl4] (Ac-CYNE[1Nal]GCEDFYDIC-NH2; linker 1-7-14 via TBMB) |  | 0.36 ± 0.12 | 
11 | CC[C@H](C)[C@@H]1NC(=O)[C@H](CC(=O)O)NC(=O)[C@H](Cc2ccc(O)cc2)NC(=O)[C@H](Cc2ccccc2)NC(=O)[C@H](CC(=O)O)NC(=O)[C@H](CCC(=O)O)NC(=O)[C@@H]2CSCc3cc(cc(c3)CSC[C@H](NC(C)=O)C(=O)N[C@@H](Cc3ccc(O)cc3)C(=O)N[C@@H](CC(N)=O)C(=O)N[C@@H](CCC(=O)O)C(=O)N[C@@H](Cc3ccccc3)C(=O)N[C@H](CCCNC(=N)N)C(=O)N2)CSC[C@@H](C(N)=O)NC1=O [17-69-07-N120, Ac-(17-69-07) D-Arg5] (Ac-CYNEF[dR]CEDFYDIC-NH2; linker 1-7-14 via TBMB) |  |  | Kd (Table 7, substitutions at position 5): 4.24 ± 1.48 nM
12 | CC(=O)N[C@H]1CSCc2cc3cc(c2)CSC[C@H](NC(=O)[C@@H](C)NC(=O)[C@H](Cc2cccc4ccccc24)NC(=O)[C@H](CCC(=O)O)NC(=O)[C@H](CC(N)=O)NC(=O)[C@@H](C)NC1=O)C(=O)N[C@@H](CCC(=O)O)C(=O)N[C@@H](CC(=O)O)C(=O)N[C@@H](Cc1ccccc1)C(=O)N[C@@H](Cc1ccc(Br)cc1)C(=O)N[C@@H](CC(=O)O)C(=O)N[C@@H](C(C)(C)C)C(=O)N[C@H](C(N)=O)CSC3 [17-69-07-N252, Ac-(17-69-07) D-Ala1 1Nal4 D-Ala5 4BrPhe9 tBuGly11] (Ac-C[dA]NE[1Nal][dA]CEDF[Phe(4-Br)]D[Tle]C-NH2; linker 1-7-14 via TBMB) | potency which is superior to wildtype |  | Kd (Table 10, multi-substitution): 0.8 ± 0.39 nM
